Reference: patent US20250296934A1, “AZEPINOINDOLES AND METHODS OF PREPARATION THEREOF” (priority 2022, published 2025)
pEC50: −log10 of the molar value. Like-named read-outs stand apart in the source and are kept apart here.

Assays:
hepatocyte [1] = test: In vitro hepatocyte clearance, rat; assay type: in vitro ADME; conditions: Rat
Experimental: (§1) Additional experimentation was performed on compounds 1, W5, and A93. Table 6a, 6b and 6c summarize, among other things, the anticipated hepatic clearance of compounds 1, W5 and A93 respectively, in various species, as specified in Table 6a, 6b and 6c and as determined by calculating the in vitro hepatocyte clearance over time and scaling such rate with such species' hepatocyte count and the anticipated liver blood flow rate in such species.

[2] = In vitro hepatocyte clearance, rat; assay type: in vitro ADME
Experimental: as §1

mice = test: Head Twitch Response (HTR) in mice; assay type: in vivo; conditions: Mus musculus, 1 h, measured over a 60 minute interval
Experimental: Head Twitch Response (HTR) was assessed using a head-mounted neodymium magnet and a magnetometer detection coil, as described in Halberstadt et al., Psychopharmacology (Berl.), 2013, 227 (4): 727-739. Table 8 below summarizes the ED50 in head twitch (as measured over a 60 minute interval) in mice as a result of Compound 1 as compared to psilocybin.

5-HT1A = molecular target: T1, 5-HT1A (Homo sapiens, UniProt P08908); test: 5-HT receptor activity (Table 3), 5-HT1A; assay type: cell-based
T1 sequence (P08908 1-422): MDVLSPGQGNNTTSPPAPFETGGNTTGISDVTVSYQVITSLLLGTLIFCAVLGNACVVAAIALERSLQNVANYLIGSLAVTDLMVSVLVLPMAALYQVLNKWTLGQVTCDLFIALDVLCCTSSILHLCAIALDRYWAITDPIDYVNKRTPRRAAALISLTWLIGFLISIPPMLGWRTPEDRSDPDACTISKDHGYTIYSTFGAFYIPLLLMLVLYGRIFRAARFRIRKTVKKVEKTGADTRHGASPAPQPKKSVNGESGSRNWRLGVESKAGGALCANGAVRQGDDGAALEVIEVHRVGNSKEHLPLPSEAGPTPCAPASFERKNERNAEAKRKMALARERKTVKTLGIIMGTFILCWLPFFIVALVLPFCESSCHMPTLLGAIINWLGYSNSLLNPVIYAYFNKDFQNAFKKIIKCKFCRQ

Plasma PK in rat = assay type: in vivo
Description: (§2) Tables 7a and 7b summarize, among other things, the observed plasma PK properties in animals, for Compound 1: […]

5-HT1B = 5-HT1B (Homo sapiens, UniProt P28222); test: 5-HT receptor activity (Table 3), 5-HT1B; assay type: cell-based
Plasma PK in dog = assay type: in vivo
Description: as §2

5-HT2B = 5-HT2B (Homo sapiens, UniProt P41595); test: 5-HT2B Gq dissociation BRET functional assay; assay type: cell-based; set-up: expressed in transfected cells; host or cells: HEK293T
hepatocyte [3] = test: In vitro hepatocyte clearance, dog; assay type: in vitro ADME; conditions: Dog
Experimental: as §1

[4] = In vitro hepatocyte clearance, dog; assay type: in vitro ADME
Experimental: as §1

5-HT2A [5] = molecular target: T2, 5-HT2A (Homo sapiens, UniProt P28223); test: 5-HT2A Gq dissociation BRET functional assay; assay type: cell-based; set-up: expressed in transfected cells; host or cells: HEK293T
5-HT5A = 5-HT5A (Homo sapiens, UniProt P47898); test: 5-HT receptor activity (Table 3), 5-HT5A; assay type: cell-based
[6] = test system: SafetyScreen44™ panel hits; test: Follow up functional assays of SafetyScreen44 hits; set-up: species or system human
Experimental: Various compounds disclosed herein were subjected to an in vitro SafetyScreen44™ panel for identifying off-target activity. Compounds of interest that are identified in the panel are then tested in follow up functional assays to identify if such compounds have a significant off-target risk. […] It is predicted that other compounds share similar characteristics with compound 1 and also lack of the off-target activity.

5-HT2A [7] = molecular target: T2, 5-HT2A; test: 5-HT receptor activity (Table 3), 5-HT2A; assay type: cell-based
[8] = normalized to % 5-HT stimulation

T2 sequence (P28223 whole entry): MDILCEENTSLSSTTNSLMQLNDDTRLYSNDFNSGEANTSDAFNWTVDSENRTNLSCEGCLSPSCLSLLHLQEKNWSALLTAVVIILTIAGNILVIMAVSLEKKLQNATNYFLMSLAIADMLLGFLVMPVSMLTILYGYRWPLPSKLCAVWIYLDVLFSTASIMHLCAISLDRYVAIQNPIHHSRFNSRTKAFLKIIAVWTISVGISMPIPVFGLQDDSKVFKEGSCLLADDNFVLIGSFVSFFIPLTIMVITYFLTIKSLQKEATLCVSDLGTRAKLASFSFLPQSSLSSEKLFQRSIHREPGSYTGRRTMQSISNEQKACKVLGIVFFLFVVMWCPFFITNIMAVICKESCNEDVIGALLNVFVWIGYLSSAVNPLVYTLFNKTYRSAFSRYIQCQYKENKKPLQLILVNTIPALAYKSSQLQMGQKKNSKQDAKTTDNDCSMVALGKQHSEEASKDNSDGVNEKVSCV
Chain of 5-HT2B (P41595 whole entry): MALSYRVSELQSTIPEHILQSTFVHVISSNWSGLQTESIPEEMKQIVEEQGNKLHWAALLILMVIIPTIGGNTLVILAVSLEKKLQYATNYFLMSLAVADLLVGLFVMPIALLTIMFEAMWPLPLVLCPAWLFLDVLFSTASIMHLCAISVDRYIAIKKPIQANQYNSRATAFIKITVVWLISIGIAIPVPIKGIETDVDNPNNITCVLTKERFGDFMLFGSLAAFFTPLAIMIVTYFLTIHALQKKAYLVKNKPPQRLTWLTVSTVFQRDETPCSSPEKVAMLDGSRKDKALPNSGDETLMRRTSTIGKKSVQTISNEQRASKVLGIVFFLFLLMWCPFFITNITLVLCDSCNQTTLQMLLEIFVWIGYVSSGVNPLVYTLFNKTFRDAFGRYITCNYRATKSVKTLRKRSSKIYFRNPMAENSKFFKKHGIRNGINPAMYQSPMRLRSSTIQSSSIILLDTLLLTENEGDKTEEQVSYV
Chain of 5-HT1B (P28222 whole entry, species assumed): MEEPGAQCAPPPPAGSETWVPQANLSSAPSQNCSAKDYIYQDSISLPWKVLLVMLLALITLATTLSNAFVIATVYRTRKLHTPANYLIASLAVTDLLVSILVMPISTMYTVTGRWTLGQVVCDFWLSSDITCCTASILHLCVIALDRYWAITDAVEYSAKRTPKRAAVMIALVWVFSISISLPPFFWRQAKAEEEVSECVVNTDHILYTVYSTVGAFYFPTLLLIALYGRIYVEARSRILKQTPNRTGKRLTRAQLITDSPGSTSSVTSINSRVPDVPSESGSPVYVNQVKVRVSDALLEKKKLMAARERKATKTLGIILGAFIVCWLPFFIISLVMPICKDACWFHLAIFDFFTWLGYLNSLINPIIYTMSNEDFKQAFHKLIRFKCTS
Chain of 5-HT5A (P47898 whole entry, species assumed): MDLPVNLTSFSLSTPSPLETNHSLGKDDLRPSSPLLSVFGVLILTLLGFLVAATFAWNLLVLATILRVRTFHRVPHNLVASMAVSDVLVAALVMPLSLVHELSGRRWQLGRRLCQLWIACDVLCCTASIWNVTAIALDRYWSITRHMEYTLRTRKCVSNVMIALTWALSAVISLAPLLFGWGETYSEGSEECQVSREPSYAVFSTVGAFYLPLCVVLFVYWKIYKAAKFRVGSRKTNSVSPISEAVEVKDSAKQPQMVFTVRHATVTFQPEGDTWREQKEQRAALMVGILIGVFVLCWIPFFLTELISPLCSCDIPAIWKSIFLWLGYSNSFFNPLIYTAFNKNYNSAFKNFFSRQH

## Cc1ccc(O)c2c3c([nH]c12)CCNCC3 [Cpd #1 (Pharm-136), 7-Methyl-1,2,3,4,5,6-hexahydroazepino[4,5-b]indol-10-ol]
Hepatocyte [1]
  Hepatic Extraction Ratio (E): 0.32
  Predicted hepatic CL: 17.41 mL/min/kg
[2]; Rat hepatocytes
  hepatocyte CLint: 5.43 µL/min/1e6 cells
[2]; Rat hepatocytes, read-out: In vitro T1/2
  half-life: 4.26 h
[2]; rat, hepatocytes, read-out: Scale-up Clint
  CLint scaled: 25.4 mL/min/kg
TA1535; TA1535 + S9, 1.0E−04M
  Count (n. of wells): 0 n. of wells
  Significance: Negative
TA1535; TA1535 + S9, 1.0E−05M
  Count (n. of wells): 0 n. of wells
  Significance: Negative
TA1535; TA1535 + S9, 5.0E−05M
  Count (n. of wells): 0 n. of wells
  Significance: Negative
TA1535; TA1535 + S9, 5.0E−06M
  Count (n. of wells): 0 n. of wells
  Significance: Negative
TA1535; TA1535 − S9, 1.0E−04M
  Count (n. of wells): 0 n. of wells
  Significance: Negative
TA1535; TA1535 − S9, 1.0E−05M
  Count (n. of wells): 0 n. of wells
  Significance: Negative
TA1535; TA1535 − S9, 5.0E−05M
  Count (n. of wells): 0 n. of wells
  Significance: Negative
TA1535; TA1535 − S9, 5.0E−06M
  Count (n. of wells): 0 n. of wells
  Significance: Negative
mice
  ED50: 3.6 mg/kg
5-HT1A
  pEC50: 5.40
  Eff: 73%
Plasma PK in rat; IP, 10 mg/kg
  AUC(0-t): 193 ng·h/mL
  Cl_F: 816.02 mL/min/kg
  Vz_F: 225.48 L/kg
  half-life: 3.3 h
Plasma PK in rat; IV, 2.5 mg/kg
  AUC(0-t): 37.5 ng·h/mL
  half-life: 3.93 h
Plasma PK in rat; IV, 2.5 mg/kg, read-out: Cltot (converted)
  clearance: 1070 mL/min/kg
Plasma PK in rat; IV, 2.5 mg/kg, read-out: Vss
  Vd: 0.204 L/kg
5-HT1B
  pEC50: 6.49
  Eff: 74%
Plasma PK in dog; IV, 2 mg/kg
  AUC(0-t): 1200 ng·h/mL
  half-life: 2.84 h
Plasma PK in dog; IV, 2 mg/kg, read-out: Cltot (converted)
  clearance: 24.6 mL/min/kg
Plasma PK in dog; IV, 2 mg/kg, read-out: Vss
  Vd: 5.15 L/kg
Plasma PK in dog; PO, 10 mg/kg
  AUC(0-t): 5460 ng·h/mL
  Vz_F: 7.648 L/kg
  half-life: 3.21 h
5-HT2B
  pEC50: 8.46
5-HT2B; [8]
  5-HT2B BRET Eff: 52%
Hepatocyte [3]
  Hepatic Extraction Ratio (E): <0.38
  Predicted hepatic CL: <11.62 mL/min/kg
[4]; Dog hepatocytes
  hepatocyte CLint: < 2.71 µL/min/1e6 cells
[4]; Dog hepatocytes, read-out: In vitro T1/2
  half-life: > 8.53 h
[4]; dog, hepatocytes, read-out: Scale-up Clint
  CLint scaled: < 18.6 mL/min/kg
5-HT2A [5]
  pEC50: 9.22
5-HT2A [5]; [8]
  5-HT2A BRET Eff: 102%
5-HT5A
  EC50: Not active
[6]
  Follow up studies: No significant off-
[6]; listed as compound 1
  Follow up studies: does not possess significant off-target activity
TA1537; TA1537 + S9, 1.0E−04M
  Count (n. of wells): 0 n. of wells
  Significance: Negative
TA1537; TA1537 + S9, 1.0E−05M
  Count (n. of wells): 1 n. of wells
  Significance: Negative
TA1537; TA1537 + S9, 5.0E−05M
  Count (n. of wells): 0 n. of wells
  Significance: Negative
TA1537; TA1537 + S9, 5.0E−06M
  Count (n. of wells): 2 n. of wells
  Significance: Negative
TA1537; TA1537 − S9, 1.0E−04M
  Count (n. of wells): 0 n. of wells
  Significance: Negative
TA1537; TA1537 − S9, 1.0E−05M
  Count (n. of wells): 1 n. of wells
  Significance: Negative
TA1537; TA1537 − S9, 5.0E−05M
  Count (n. of wells): 0 n. of wells
  Significance: Negative
TA1537; TA1537 − S9, 5.0E−06M
  Count (n. of wells): 0 n. of wells
  Significance: Negative
5-HT2A [7]
  pEC50: 9.30
5-HT2A [7]; 5-HT2A, Table 3
  Eff: 101%
